US5149707A, “1-((2-fluorophenyl)(4-fluorophenyl)phenylmethyl)-1H-imidazole useful as antifungal agent” (J. Uriach & Cia, S.A., priority 1988, dated 1992)
In brackets after ≈: the same amount, converted by molar mass. Where two headings read alike, the source gives them in different places.

How the values were obtained:
Type in all cases: cell-based
Aspergillus niger = assay: In vitro antifungal activity (MIC), agar dilution
Experimental: (§1) The antifungal activity of 1-[(2-fluorophenyl)(4-fluorophenyl)phenylmethyl]-1H-imidazole was shown by its ability to inhibit the growth of different species of yeast and filamentous fungi in vitro. The activity was recorded as the MIC value, that is, the minimum amount of product needed to achieve the complete inhibition of the in vitro growth of the test organism. Testing was performed as follows: a solution of the antifungal agent in ethanol was diluted with DST agar (pH 6.5) or Emmon's Sabouraud dextrose agar to obtain concentrations between 10 and 0.01 mcg/ml, or 80 and 0.16 mcg/m, respectively. The inoculum was standarized in order 1×10^5 cfu/ml, and 10 mcl of each organism was seeded into the agar surface. Incubation was then allowed at 30° C. during 3 days (DST) or 2 days (Emmon's) for yeasts and 10 days for filamentous fungi. Following incubation, the zones of inhibition were measured and compared to an inoculated, drug-free control to yield the MIC value.

[1] = system: T. mentagrophytes ATCC 9129; assay: In vitro antifungal activity (MIC), agar dilution; settings: Trichophyton mentagrophytes, read-out: MIC
Experimental: as §1

[2] = system: Aspergillus fumigatus (2); assay: In vitro antifungal activity (MIC), agar dilution; settings: read-out: MIC
Experimental: as §1

C. albicans serotipo B = assay: In vitro antifungal activity (MIC), agar dilution; settings: Candida albicans, read-out: MIC
Experimental: as §1

[3] = system: T. mentagrophytes (clinica) (3); assay: In vitro antifungal activity (MIC), agar dilution; settings: Trichophyton mentagrophytes, read-out: MIC
Experimental: as §1

[4] = system: C. parapsilosis (clinica); assay: In vitro antifungal activity (MIC), agar dilution; settings: Lodderomyces parapsilosis, read-out: MIC
Experimental: as §1

[5] = system: T. mentagrophytes (clinica) (1); assay: In vitro antifungal activity (MIC), agar dilution; settings: Trichophyton mentagrophytes, read-out: MIC
Experimental: as §1

[6] = system: C. guilliermondii (clinica); assay: In vitro antifungal activity (MIC), agar dilution
Experimental: as §1

S. cerevisiae ATCC 9763 = assay: In vitro antifungal activity (MIC), agar dilution; settings: Saccharomyces cerevisiae, read-out: MIC
Experimental: as §1

[7] = system: Microsporum audouini ATCC 9079; assay: In vitro antifungal activity (MIC), agar dilution
Experimental: as §1

[8] = system: T. mentagrophytes (clinica) (4); assay: In vitro antifungal activity (MIC), agar dilution; settings: Trichophyton mentagrophytes, read-out: MIC
Experimental: as §1

[9] = system: T. mentagrophytes (clinica) (5); assay: In vitro antifungal activity (MIC), agar dilution; settings: Trichophyton mentagrophytes, read-out: MIC
Experimental: as §1

T. glabrata (clinica) = assay: In vitro antifungal activity (MIC), agar dilution; settings: Nakaseomyces glabratus, read-out: MIC
Experimental: as §1

Rhodotorula rubra = assay: In vitro antifungal activity (MIC), agar dilution
Experimental: as §1

Microsporum gypseum (-) = assay: In vitro antifungal activity (MIC), agar dilution; settings: Nannizzia gypsea
Experimental: as §1

[10] = system: C. guilliermondii SQ 2210; assay: In vitro antifungal activity (MIC), agar dilution; settings: Meyerozyma guilliermondii, read-out: MIC
Experimental: as §1

T. mentagrohytes = assay: MIC distribution, serial dilutions in Sabouraud gentamycin broth, microplates; settings: # of strains = 17
Experimental: (§2) The antifungal activity of 1-[(2-fluorophenyl)(4-fluorophenyl)phenylmethyl]-1H-imidazole and bifonazole was determined by serial dilutions in Sabouraud gentamycin broth using microplates. The antifungal agent was diluted in 50% ethanol to obtain concentrations between 40 and 0.015 mcg/ml. Inoculum was 10^7 cfu/ml for yeast and 10^6 cfu/ml for dermatophytes. Incubation was allowed at 37° C. during 2 days for yeasts, and at 29° C. during 7 days for dermatophytes. MIC's were determined as in example 18. The MIC distributions obtained in 9 organisms are shown in the next tables.

M. canis = assay: as above; settings: # of strains = 13
Experimental: as §2

C. krusei = assay: as above; settings: # of strains = 5
Experimental: as §2

C. albicans = assay: as above; settings: # of strains = 50
Experimental: as §2

C. tropicalis = assay: as above; settings: # of strains = 30
Experimental: as §2

C. guilliermondii = assay: as above; settings: # of strains = 5
Experimental: as §2

T. glabrata = assay: as above; settings: # of strains = 10 = UR-4056/15 Bifonzaole
Experimental: as §2

T. rubrum = assay: as above; settings: # of strains = 6
Experimental: as §2

C. parapsilosis = assay: as above; settings: # of strains 10 = UR-4056/14 = Bifonazole
Experimental: as §2

[11] = Emmon's Sabouraud dextrose agar

## Fc1ccc(C(c2ccccc2)(c2ccccc2F)n2ccnc2)cc1 (stereo not drawn) [UR-4056, 1-[(2-fluorophenyl) (4-fluorophenyl)phenylmethyl]-1H-imidazole]
Aspergillus niger; DST agar
  MIC: 0.25 µg/mL (≈ 0.722 µM)
Aspergillus niger; [11]
  MIC: 2.5 µg/mL (≈ 7.22 µM)
[1]; ATCC9129, DST agar
  MIC: 0.05 µg/mL (≈ 0.144 µM)
[1]; ATCC9129, Emmon's Sabouraud dextrose agar
  MIC: 0.31 µg/mL (≈ 0.895 µM)
[2]; DST agar
  MIC: 0.5 µg/mL (≈ 1.44 µM)
[2]; [11]
  MIC: 1.25 µg/mL (≈ 3.61 µM)
C. albicans serotipo B; DST agar
  MIC: 0.5 µg/mL (≈ 1.44 µM)
C. albicans serotipo B; [11]
  MIC: 0.31 µg/mL (≈ 0.895 µM)
[3]; DST agar
  MIC: 0.25 µg/mL (≈ 0.722 µM)
[3]; [11]
  MIC: 0.16 µg/mL (≈ 0.462 µM)
[4]; DST agar
  MIC: 0.5 µg/mL (≈ 1.44 µM)
[4]; [11]
  MIC: 0.08 µg/mL (≈ 0.231 µM)
[5]; DST agar
  MIC: 0.1 µg/mL (≈ 0.289 µM)
[5]; [11]
  MIC: 1.25 µg/mL (≈ 3.61 µM)
[6]; [11]
  MIC: 5.00 µg/mL (≈ 14.4 µM)
[6]; Meyerozyma guilliermondii, DST agar, read-out: MIC
  MIC: 5 µg/mL (≈ 14.4 µM)
S. cerevisiae ATCC 9763; ATCC9763, DST agar
  MIC: 0.1 µg/mL (≈ 0.289 µM)
S. cerevisiae ATCC 9763; ATCC9763, Emmon's Sabouraud dextrose agar
  MIC: 0.31 µg/mL (≈ 0.895 µM)
[7]; ATCC9079, DST agar
  MIC: 0.05 µg/mL (≈ 0.144 µM)
[7]; ATCC9079, Emmon's Sabouraud dextrose agar
  MIC: 0.63 µg/mL (≈ 1.82 µM)
[8]; DST agar
  MIC: 0.1 µg/mL (≈ 0.289 µM)
[8]; [11]
  MIC: 1.25 µg/mL (≈ 3.61 µM)
[9]; DST agar
  MIC: 0.1 µg/mL (≈ 0.289 µM)
[9]; [11]
  MIC: 1.25 µg/mL (≈ 3.61 µM)
T. glabrata (clinica); DST agar
  MIC: 0.05 µg/mL (≈ 0.144 µM)
T. glabrata (clinica); [11]
  MIC: 0.31 µg/mL (≈ 0.895 µM)
Rhodotorula rubra; DST agar
  MIC: 0.1 µg/mL (≈ 0.289 µM)
Rhodotorula rubra; [11]
  MIC: 0.08 µg/mL (≈ 0.231 µM)
Microsporum gypseum (-); DST agar
  MIC: 0.1 µg/mL (≈ 0.289 µM)
Microsporum gypseum (-); [11]
  MIC: 0.63 µg/mL (≈ 1.82 µM)
[10]; SQ2210, DST agar
  MIC: 1 µg/mL (≈ 2.89 µM)
[10]; SQ2210, Emmon's Sabouraud dextrose agar
  MIC: 0.16 µg/mL (≈ 0.462 µM)
T. mentagrohytes; MIC 0.15
  MIC Distribution (number of strains): 1 # of strains
T. mentagrohytes; MIC 0.3
  MIC Distribution (number of strains): 2 # of strains
T. mentagrohytes; MIC 0.6
  MIC Distribution (number of strains): 11 # of strains
T. mentagrohytes; MIC column 1.2
  MIC Distribution (number of strains): 3 # of strains
M. canis; MIC 0.3
  MIC Distribution (number of strains): 4 # of strains
M. canis; MIC 2.5
  MIC Distribution (number of strains): 4 # of strains
M. canis; MIC column 1.2
  MIC Distribution (number of strains): 5 # of strains
C. krusei; MIC 0.3
  MIC Distribution (number of strains): 1 # of strains
C. krusei; MIC 2.5
  MIC Distribution (number of strains): 2 # of strains
C. krusei; MIC column 1.2
  MIC Distribution (number of strains): 1 # of strains
C. krusei; MIC column 40 (first)
  MIC Distribution (number of strains): 1 # of strains
C. albicans; MIC 0.3
  MIC Distribution (number of strains): 1 # of strains
C. albicans; MIC 2.5
  MIC Distribution (number of strains): 11 # of strains
C. albicans; MIC 5.0
  MIC Distribution (number of strains): 31 # of strains
C. albicans; MIC column 1.2
  MIC Distribution (number of strains): 2 # of strains
C. albicans; MIC column 10
  MIC Distribution (number of strains): 5 # of strains
C. tropicalis; MIC 0.6
  MIC Distribution (number of strains): 1 # of strains
C. tropicalis; MIC 2.5
  MIC Distribution (number of strains): 4 # of strains
C. tropicalis; MIC 5.0
  MIC Distribution (number of strains): 13 # of strains
C. tropicalis; MIC column 0.078
  MIC Distribution (number of strains): 1 # of strains
C. tropicalis; MIC column 1.2
  MIC Distribution (number of strains): 3 # of strains
C. tropicalis; MIC column 10
  MIC Distribution (number of strains): 8 # of strains
C. guilliermondii; MIC 0.3
  MIC Distribution (number of strains): 1 # of strains
C. guilliermondii; MIC 0.6
  MIC Distribution (number of strains): 2 # of strains
C. guilliermondii; MIC column 1.2
  MIC Distribution (number of strains): 2 # of strains
T. glabrata; MIC 0.6
  MIC Distribution (number of strains): 1 # of strains
T. glabrata; MIC 2.5
  MIC Distribution (number of strains): 1 # of strains
T. glabrata; MIC 5.0
  MIC Distribution (number of strains): 2 # of strains
T. glabrata; MIC column 10
  MIC Distribution (number of strains): 4 # of strains
T. glabrata; MIC column 20
  MIC Distribution (number of strains): 1 # of strains
T. glabrata; MIC column 40 (first)
  MIC Distribution (number of strains): 1 # of strains
T. rubrum; MIC 0.15
  MIC Distribution (number of strains): 4 # of strains
T. rubrum; MIC 2.5
  MIC Distribution (number of strains): 1 # of strains
T. rubrum; MIC column 1.2
  MIC Distribution (number of strains): 1 # of strains
C. parapsilosis; MIC 0.038
  MIC Distribution (number of strains): 2 # of strains
C. parapsilosis; MIC 0.15
  MIC Distribution (number of strains): 1 # of strains
C. parapsilosis; MIC 0.3
  MIC Distribution (number of strains): 2 # of strains
C. parapsilosis; MIC 0.6
  MIC Distribution (number of strains): 2 # of strains
C. parapsilosis; MIC column 1.2
  MIC Distribution (number of strains): 1 # of strains
C. parapsilosis; MIC column 10
  MIC Distribution (number of strains): 2 # of strains
